Source: PubChem BioAssay AID1845195 (Molecular Pharmacology Branch, DTP, NCI, 2023)
“And” between values parts separate entries of the source, which are not always exact repeats. Equal entries are not always repeated.

System: 156681-154-R-J1 tumor spheroid viability
Experiment: Anticancer human tumor 156681-154-R-J1 patient-derived melanoma cell line growth inhibition
Details: spheroids with HUVEC and MSC; for viability, T/C: stronger effect = lower value
Method in brief: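 Complex tumor spheroids combined malignant cells with endothelial cells and mesenchymal stem cells. DNA-damaging drugs and DNA repair inhibitors were tested alone and in combination, at half-log dilutions down from clinical Cmax (top 10 microM if Cmax unknown), 0.25% DMSO final.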
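Also: spheroids exposed to compounds for 7 days before readout.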
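For viability, T/C in this document: percent of vehicle control viability where 100% = DMSO-treated spheroids.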

## CC1COCCN1c1cc(-c2ccnn2C)c2ccnc(-c3ccn[nH]3)c2n1 (configuration not stated) + CC[C@@]1(O)C(=O)OCc2c1cc1n(c2=O)Cc2cc3c(CN(C)C)c(O)ccc3nc2-1
Curve of first compound, second compound 0.003 µM
  IC50: 175 nM
Curve of first compound, second compound 0.00949 µM
  IC50: 194 nM
Curve of first compound, second compound 0.03 µM
  IC50: 52.4 nM
Curve of first compound, second compound 0.0949 µM
  IC50: < 31.6 nM
Curve of first compound, second compound 0.3 µM
  IC50: < 31.6 nM
Second compound 0.003 µM, first compound 0.0316 µM
  viability, T/C: 83.5%
Second compound 0.003 µM, first compound 0.1 µM
  viability, T/C: 62.5%
Second compound 0.003 µM, first compound 0.316 µM
  viability, T/C: 36.7%
Second compound 0.003 µM, first compound 1 µM
  viability, T/C: 27.1%
Second compound 0.003 µM, first compound 3.16 µM
  viability, T/C: 26.7%
Second compound 0.003 µM, first compound 10 µM
  viability, T/C: 23.9%
Second compound 0.00949 µM, first compound 0.0316 µM
  viability, T/C: 60.7%
Second compound 0.00949 µM, first compound 0.1 µM
  viability, T/C: 66.5%
Second compound 0.00949 µM, first compound 0.316 µM
  viability, T/C: 39.9%
Second compound 0.00949 µM, first compound 1 µM
  viability, T/C: 31.9%
Second compound 0.00949 µM, first compound 3.16 µM
  viability, T/C: 29.6%
Second compound 0.00949 µM, first compound 10 µM
  viability, T/C: 23.6%
Second compound 0.03 µM, first compound 0.0316 µM
  viability, T/C: 55.2%
Second compound 0.03 µM, first compound 0.1 µM
  viability, T/C: 44.8%
Second compound 0.03 µM, first compound 0.316 µM
  viability, T/C: 32.8%
Second compound 0.03 µM, first compound 1 µM
  viability, T/C: 28.5%
Second compound 0.03 µM, first compound 3.16 µM
  viability, T/C: 27.4%
Second compound 0.03 µM, first compound 10 µM
  viability, T/C: 23.5%
Second compound 0.0949 µM, first compound 0.0316 µM
  viability, T/C: 26.3%
Second compound 0.0949 µM, first compound 0.1 µM
  viability, T/C: 26.6%
Second compound 0.0949 µM, first compound 0.316 µM
  viability, T/C: 28.3%
Second compound 0.0949 µM, first compound 1 µM
  viability, T/C: 27.5%
Second compound 0.0949 µM, first compound 3.16 µM
  viability, T/C: 26.7%
Second compound 0.0949 µM, first compound 10 µM
  viability, T/C: 21.1%
Second compound 0.3 µM, first compound 0.0316 µM
  viability, T/C: 35.2%
Second compound 0.3 µM, first compound 0.1 µM
  viability, T/C: 34.3%
Second compound 0.3 µM, first compound 0.316 µM
  viability, T/C: 39.6%
Second compound 0.3 µM, first compound 1 µM
  viability, T/C: 37.2%
Second compound 0.3 µM, first compound 3.16 µM
  viability, T/C: 29.6%
Second compound 0.3 µM, first compound 10 µM
  viability, T/C: 27.6%

## COc1cc(C)[nH]c(=O)c1CN1CCc2c(Cl)cc(C(OC)C3COC3)c(Cl)c2C1=O (configuration not stated)
Compound 0.0316 µM
  viability, T/C: 84.3% and 79.3% and 103%
Compound 0.1 µM
  viability, T/C: 96.4% and 99.4% and 110%
Compound 0.316 µM
  viability, T/C: 99% and 102% and 105%
Compound 1 µM
  viability, T/C: 91.7% and 88.1% and 112%
Compound 3.16 µM
  viability, T/C: 86% and 95.8% and 122%
Compound 10 µM
  viability, T/C: 107% and 93% and 118%
Curve of compound
  IC50: > 10000 nM

## CC1COCCN1c1cc(-c2ccnn2C)c2ccnc(-c3ccn[nH]3)c2n1 (configuration not stated) + Cn1nnc2c(C(N)=O)ncn2c1=O
Curve of first compound, second compound 1 µM
  IC50: 90.7 nM
Curve of first compound, second compound 3.16 µM
  IC50: 89.8 nM
Curve of first compound, second compound 10 µM
  IC50: 44.3 nM
Curve of first compound, second compound 31.6 µM
  IC50: < 31.6 nM
Curve of first compound, second compound 100 µM
  IC50: < 31.6 nM
Second compound 1 µM, first compound 0.0316 µM
  viability, T/C: 66.7%
Second compound 1 µM, first compound 0.1 µM
  viability, T/C: 48.5%
Second compound 1 µM, first compound 0.316 µM
  viability, T/C: 32.1%
Second compound 1 µM, first compound 1 µM
  viability, T/C: 24.1%
Second compound 1 µM, first compound 3.16 µM
  viability, T/C: 22.5%
Second compound 1 µM, first compound 10 µM
  viability, T/C: 20.2%
Second compound 3.16 µM, first compound 0.0316 µM
  viability, T/C: 73.5%
Second compound 3.16 µM, first compound 0.1 µM
  viability, T/C: 47.7%
Second compound 3.16 µM, first compound 0.316 µM
  viability, T/C: 26.1%
Second compound 3.16 µM, first compound 1 µM
  viability, T/C: 21.3%
Second compound 3.16 µM, first compound 3.16 µM
  viability, T/C: 20.2%
Second compound 3.16 µM, first compound 10 µM
  viability, T/C: 18%
Second compound 10 µM, first compound 0.0316 µM
  viability, T/C: 54.4%
Second compound 10 µM, first compound 0.1 µM
  viability, T/C: 39.3%
Second compound 10 µM, first compound 0.316 µM
  viability, T/C: 23.2%
Second compound 10 µM, first compound 1 µM
  viability, T/C: 19.2%
Second compound 10 µM, first compound 3.16 µM
  viability, T/C: 21.9%
Second compound 10 µM, first compound 10 µM
  viability, T/C: 15.6%
Second compound 31.6 µM, first compound 0.0316 µM
  viability, T/C: 38%
Second compound 31.6 µM, first compound 0.1 µM
  viability, T/C: 31.4%
Second compound 31.6 µM, first compound 0.316 µM
  viability, T/C: 18.6%
Second compound 31.6 µM, first compound 1 µM
  viability, T/C: 20.2%
Second compound 31.6 µM, first compound 3.16 µM
  viability, T/C: 21.8%
Second compound 31.6 µM, first compound 10 µM
  viability, T/C: 16.2%
Second compound 100 µM, first compound 0.0316 µM
  viability, T/C: 23.6%
Second compound 100 µM, first compound 0.1 µM
  viability, T/C: 17.1%
Second compound 100 µM, first compound 0.316 µM
  viability, T/C: 12.6%
Second compound 100 µM, first compound 1 µM
  viability, T/C: 15.3%
Second compound 100 µM, first compound 3.16 µM
  viability, T/C: 16%
Second compound 100 µM, first compound 10 µM
  viability, T/C: 17%
